“Also recorded” adds a separate entry of the source.

These results are taken from article PMC12588083, “Validated antimalarial drug target discovery using genome-scale metabolic modeling” (Antimicrobial Agents and Chemotherapy, 2025).

Series [1] concerns the target recombinant PfUCK (P. falciparum UMP-CMP kinase, PfUCK-Δ23) (Plasmodium falciparum, UniProt Q8I231). Briefly: Inhibition constant (Ki) determination, coupled PK/LDH NADH assay, recombinant PfUCK. It counts as biochemical. On the procedure:
(§1) The hydrophobic core at the protein’s N-terminus may cause poor expression and low solubility in E. coli. Therefore, a truncated gene was created where the ORF began at amino acid residues 24–371, encoding a 348 amino acid protein. […] Briefly, protein expression was induced with isopropyl-D-thiogalactoside, incubated at 16°C with shaking at 200 RPM for 20 hours, and the cell pellet resuspended in binding buffer (50 mM Tris [pH 7.6], 300 mM NaCl, 20 mM imidazole, 5% glycerol, and 0.075% β-mercaptoethanol), with cell disruption using an Avestin C3 Cell Disrupter. Cell debris was removed, and the UCK was purified by Ni-NTA affinity purification. The protein was eluted from the column using a linear gradient of imidazole ([…]) in elution buffer (50 mM Tris [pH 7.6], 300 mM NaCl, 5% glycerol, and 0.075% β-mercaptoethanol). […] The concentrated protein was then stored at −70°C in a storage buffer (25 mM Tris-HCl, 50 mM KCl, and 20% glycerol; pH 7.0).
(§2) The final concentration of dimethyl sulfoxide (Merck, Catalog number 472301) in the assay reaction was maintained at 1%.

The test system of series [2] is recombinant PfUCK (P. falciparum UMP-CMP kinase, PfUCK-Δ23). The description is as above. It is filed as biochemical, Plasmodium falciparum. The note with it: hUCK versus PfUCK. On the procedure: as §1, §2
Series [3] addresses T1, recombinant human UMP-CMP kinase (hUCK) (Homo sapiens, UniProt P30085).
T1 construct: constructed by amplifying its ORF from an available commercial plasmid; His tag (vector-encoded by pET28a; the text names only the HisPur Ni-NTA and His GraviTrap TALON columns) (N); host or cells: E. coli BL21 (DE3) with extra argU, ileY and leuW tRNA genes
T1 sequence (P30085 1-228 isoform P30085-3): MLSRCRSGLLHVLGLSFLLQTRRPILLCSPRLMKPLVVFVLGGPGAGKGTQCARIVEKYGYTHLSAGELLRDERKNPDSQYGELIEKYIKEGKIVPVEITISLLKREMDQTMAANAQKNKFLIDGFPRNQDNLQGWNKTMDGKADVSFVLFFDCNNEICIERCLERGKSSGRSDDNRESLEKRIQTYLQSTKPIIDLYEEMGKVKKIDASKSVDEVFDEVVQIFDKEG
Kind of series: Inhibition constant (Ki) determination, coupled PK/LDH NADH assay, hUCK. It counts as biochemical. The settings on record: for Ki—hUCK: 1 mM CMP, competitive equation. On the procedure:
The protein was purified with a HisPur Ni-NTA Spin column, and elution was performed with 250 mM imidazole in elution buffer (50 mM Tris-HCl, 750 mM NaCl, and 10% glycerol; pH 7.5). The protein was further purified using a His GraviTrap TALON column (Cytiva, catalog number 29-0005-94). The buffers employed were binding buffer (50 mM potassium phosphate [KP], 100 mM NaCl, and 10% glycerol; pH 8.0), washing buffer (50 mM KP, 500 mM NaCl, 10 mM imidazole, and 10% glycerol; pH 8.0), and elution buffer (50 mM Tris-HCl, 750 mM NaCl, 250 mM imidazole, and 10% glycerol; pH 7.5). The purified protein was desalted using a PD-10 column (Sephadex G25 M; Cytiva, catalog number 17085101) stored in a storage buffer (25 mM Tris-HCl, 50 mM KCl, and 20% glycerol; pH 7.0). Purity of the recombinant protein was verified via SDS-PAGE (Mini-Protein TGX Precast Gels; Bio-Rad), and its concentration was determined using a Bradford protein assay (Bio-Rad, catalog number 5000006).
as §2

The test system of series [4] is P. falciparum 3D7. Briefly: Antiplasmodial activity (IC50), SYBR Green fluorescence, 48 hours. It counts as cell-based, Plasmodium falciparum. The procedure:
P. falciparum 3D7 parasites underwent two synchronization cycles with D-sorbitol initiating the inhibitor testing. Parasitemia and hematocrit were adjusted to 0.5% and 3%, respectively. Synchronized ring parasites were cultured in 96-well plates in complete RPMI medium with varying inhibitor concentrations. Inhibitor stock solutions, mostly at 100 mM, were prepared in DMSO. […] Triplicate wells were prepared for each compound. Negative controls included wells with uninfected red cells (3% hematocrit) in complete RPMI medium.
Culture plates were incubated in a chamber with controlled gas conditions at 37°C. After 48 hours, parasites were quantified using a fluorescence-based assay with SYBR Green dye as previously described ([51]). Lysis buffer containing SYBR Green was added to each well, and plates were incubated at room temperature for 45 minutes and protected from the light. Fluorescence was measured using a microplate reader (POLARstar OPTIMA, BMG Labtech) with excitation at 485 nm and detection at 520 nm. Background fluorescence of uninfected red cells was subtracted, and dose-response curves were plotted against inhibitor concentration. IC50 values were determined using nonlinear regression curve fitting in GraphPad Prism software.

For series [5], the target named is T2, PfUCK (Plasmodium falciparum, UniProt Q8I231).
T2 sequence (Q8I231 24-371): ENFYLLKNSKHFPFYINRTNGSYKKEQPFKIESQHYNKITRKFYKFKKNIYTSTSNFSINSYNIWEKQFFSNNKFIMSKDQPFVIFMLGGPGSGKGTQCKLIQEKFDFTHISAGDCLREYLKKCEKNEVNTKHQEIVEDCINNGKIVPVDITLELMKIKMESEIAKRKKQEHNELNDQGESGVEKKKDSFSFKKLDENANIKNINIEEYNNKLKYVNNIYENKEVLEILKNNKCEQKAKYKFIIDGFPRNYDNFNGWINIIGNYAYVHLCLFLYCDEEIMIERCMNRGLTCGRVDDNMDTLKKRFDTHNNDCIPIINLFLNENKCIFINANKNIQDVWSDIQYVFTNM
Briefly: UCK characterization: Km for nucleoside monophosphate substrates, PfUCK. It is filed as biochemical. The note with it: UMP versus CMP.

Series [6] deals with T3, hUCK (Homo sapiens, UniProt P30085). The note with it: hUCK versus PfUCK.
Series [7] deals with T3, hUCK. The note with it: read-out: Km hUCK; phosphate acceptor; literature values ref 66; cited from earlier work.
Substrate in series [8]: Nc1ccn([C@H]2C[C@H](O)[C@@H](COP(=O)(O)O)O2)c(=O)n1
Kind of series: UCK characterization: Km for nucleoside monophosphate substrates, PfUCK. It is filed as biochemical, Plasmodium falciparum. The settings on record: other: phosphate acceptor, ATP as phosphate donor, 25°C, pH 7.6.

Substrate in series [9]: O=c1ccn([C@@H]2O[C@H](COP(=O)(O)O)[C@@H](O)[C@H]2O)c(=O)[nH]1
Described as above. It is filed as biochemical, Plasmodium falciparum. The settings on record: other: phosphate acceptor, ATP as phosphate donor, 25°C, pH 7.6.

Substrate in series [10]: O=c1ccn([C@@H]2O[C@H](COP(=O)(O)O)[C@@H](O)[C@H]2O)c(=O)[nH]1
Briefly: purified protein, by the assay type. The note with it: other: phosphate acceptor, ATP as phosphate donor, 25°C, pH 7.6.

[11] abbreviates: Table 4, benzoylacetonitrile derivatives.
The mark [12] stands for this setting: Plasmodium falciparum, 3D7, 48 h, Supplementary Table 7, benzoylacetonitrile derivatives.
Where [13] appears, read: Supplementary Table 7, benzoylacetonitrile derivatives.
Where [14] appears, read: Table 3, acrylamide and chloroacetamide compounds.
The mark [15] stands for this setting: Plasmodium falciparum, 3D7, 48 h, Table 5.

As a reminder, the Ki is a measure of affinity in units of concentration, obtained from inhibition or displacement. For orientation: IC50 means the concentration needed to halve the response being measured. Regarding `N#CCC(=O)c1cccc(Cl)c1` [Compound C7], the inhibition constant Ki in series [1] came to 4.26 ± 0.55 µM. Besides, the Selectivity index in series [2] (Table 4) is above 235. Moreover, in series [3] (setting [11]), the “Ki—hUCK” value is listed as “little or no inhibition of hUCK; also recorded: No inhibition at 1 mM”. Also, the IC50 in series [4] (setting [12]) is above 310 µM; in series [4] (setting [13]) it was 380 ± 50.1 µM.
For `N#CCC(=O)c1ccc(Cl)c(Cl)c1` [Compound C12], in series [1], the Ki turned out to be 11.3 ± 2.22 µM. For the same molecule, the Selectivity index in series [2] (Table 4) is given as above 89. For the same molecule, the “Ki—hUCK” value in [3] (setting [11]) is on record as “No inhibition at 1 mM”. Besides, the “IC50 - P. falciparum (3D7), µM” value in series [4] (setting [13]) is “no inhibition at 0.5 mM”.
For the molecule `O=C(CCl)NCc1cc(=O)n2ccccc2n1` [Compound C21], the inhibition constant (Ki) in [1] came to 13.7 ± 3.18 µM; in series [3] it was 2.98 ± 0.5 µM. In addition, in series [2] (Table 3), the Selectivity index is reported as 0.22. Also, the “Ki—hUCK” value in [3] (setting [14]) is recorded as “inhibited hUCK activity”. In addition, in series [4] (setting [15]), inhibition was half-maximal at 15.6 ± 1.13 µM (IC50).
Regarding `N#CCC(=O)c1cccc(F)c1` [Compound C38], the Ki in [1] was 1.66 ± 0.27 µM. In [3] (setting [11]), the “Ki—hUCK” value is given as “little or no inhibition of hUCK; also recorded: No inhibition at 0.5 mM”. Further, the IC50 was above 310 µM in series [4] (setting [12]) and 339 ± 26.4 µM in series [4] (setting [13]).
In the case of `N#CCC(=O)c1ccccc1Cl` [Compound C39], the Ki in [1] was 3.64 ± 0.59 µM. Moreover, the Selectivity index in [2] (Table 4) is given as above 275. For the same molecule, the “Ki—hUCK” value in series [3] (setting [11]) is on record as “little or no inhibition of hUCK; also recorded: No inhibition at 1 mM”. Moreover, the “IC50 - P. falciparum (3D7), µM” value in [4] (setting [13]) is listed as “no inhibition at 1 mM”.
For the molecule `C=CC(=O)NCc1cc(=O)n2ccccc2n1` [Compound C43], the Ki amounted to 4.15 ± 0.26 µM in [1] and 4.55 ± 0.52 µM in [3]. Also, in series [2] (Table 3), the Selectivity index is listed as 1.09. In series [3] (setting [14]), the “Ki—hUCK” value is “inhibited hUCK activity”. In series [4] (setting [15]), this molecule yielded an IC50 above 1000 µM.
Usually Km stands for the concentration of substrate that gives half-maximal velocity. Regarding `O=c1ccn([C@@H]2O[C@H](COP(=O)(O)O)[C@@H](O)[C@H]2O)c(=O)[nH]1` [UMP], the “fold higher Km than CMP, PfUCK” value in series [5] came out at 3.9 fold. The “hUCK Km fold greater than PfUCK” value in series [6] was found to be 2.3 fold. For the same molecule, the Km in series [7] is 45 ± 10 µM.
As to `Nc1ccn([C@H]2C[C@H](O)[C@@H](COP(=O)(O)O)O2)c(=O)n1` [dCMP], the Km in [7] is 900 ± 100 µM.
For the molecule CMP, the Km in series [7] was 20 ± 5 µM.

B1: PfUCK (Plasmodium falciparum 3D7) (protein)
chain: ENFYLLKNSKHFPFYINRTNGSYKKEQPFKIESQHYNKITRKFYKFKKNIYTSTSNFSINSYNIWEKQFFSNNKFIMSKDQPFVIFMLGGPGSGKGTQCKLIQEKFDFTHISAGDCLREYLKKCEKNEVNTKHQEIVEDCINNGKIVPVDITLELMKIKMESEIAKRKKQEHNELNDQGESGVEKKKDSFSFKKLDENANIKNINIEEYNNKLKYVNNIYENKEVLEILKNNKCEQKAKYKFIIDGFPRNYDNFNGWINIIGNYAYVHLCLFLYCDEEIMIERCMNRGLTCGRVDDNMDTLKKRFDTHNNDCIPIINLFLNENKCIFINANKNIQDVWSDIQYVFTNM
Turning to B1, the results for the Km in series [8] and in series [9] were 428 ± 11 µM and 110 ± 14 µM, respectively.

B2: hUCK (Homo sapiens) (protein)
chain: MLSRCRSGLLHVLGLSFLLQTRRPILLCSPRLMKPLVVFVLGGPGAGKGTQCARIVEKYGYTHLSAGELLRDERKNPDSQYGELIEKYIKEGKIVPVEITISLLKREMDQTMAANAQKNKFLIDGFPRNQDNLQGWNKTMDGKADVSFVLFFDCNNEICIERCLERGKSSGRSDDNRESLEKRIQTYLQSTKPIIDLYEEMGKVKKIDASKSVDEVFDEVVQIFDKEG
With B2, the Km in series [10] was determined as 47.7 ± 3.2 µM.
